The values that follow come from patent publication US7179908B2, “Water-and organic-soluble cucurbituril derivatives, their preparation methods, their separation methods and uses” (Pohang University of Science and Technology Foundation, priority 2001, dated 2007).

A short description of series [1]: Solubilities of the cucurbituril derivatives in water, methanol, dimethylsulfoxide and acetonitrile. The class given is physicochemical.
Series [2] in a line: Binding constant measured using a microcalorimeter (VP-ITC). Conditions: 0.05 M tris buffered solution pH 7.2. As to the method:
A 5.5 mM CB*[5] solution and 110 mM-KCl solution were prepared with 0.05 M tris buffered solution having a pH of 7.2. Then, the binding constant of CB*[5] was measured using a microcalorimeter (VP-ITC, manufactured by MicroCal). As a result, CB*[5] forms a 1:2 complex with potassium ions with a primary binding constant of 2.8×10^4 M^−1 and a secondary binding constant of 1.5×10^2 M^−1. CB*[5] can selectively bind with alkali metal ions, as well as with ammonium ions. The result confirms that cucurbituril derivatives can be used as ion sensors.

Structures are written as SMILES. Converted amounts (≈) assume the structure as drawn.

Turning to `O=C1N2CN3C(=O)N4CN5C(=O)N6CN7C(=O)N8CN9C(=O)N%10CN1C1%11CCCCC21N1CN2C(=O)N(CN%12C(=O)N(CN%13C(=O)N(CN%14C(=O)N(CN%11C1=O)C%101CCCCC9%141)C81CCCCC7%131)C61CCCCC5%121)C41CCCCC321` (stereo not shown) [CB*[5]], the Solubility amounted to 0.67 mM (≈ 0.738 mg/mL) in series [1] (Acetonitrile), 18 mM (≈ 19.8 mg/mL) in series [1] (Dimethylsulfoxide), 31 mM (≈ 34.1 mg/mL) in series [1] (Methanol) and 260 mM (≈ 286 mg/mL) in series [1] (Water). For the same molecule, the “complex stoichiometry with potassium ions” value in series [2] is 1:2 complex. In series [2] (potassium ions (KCl)), this molecule had a primary binding constant of 28000 M⁻¹. Moreover, in series [2] (potassium ions (KCl)), the secondary binding constant came to 150 M⁻¹.
